The results in this text go back to US11834454B2, “Alkynylphenylbenzamide compounds and applications thereof” (SHENZHEN NEWDEL BIOTECH CO., LTD., priority 2021, dated 2023).

For orientation: IC50 means the concentration at which inhibition is half-maximal.

The target in one experiment is T1, TRKA (Homo sapiens, UniProt P04629).
T1 construct: purchased American Life Technologies PV3144
The experiment can be described thus: Z'-LYTE kinase activity detection, TRKA. In kind it is biochemical.

For another experiment, the target named is T2, TRKB (Homo sapiens, UniProt Q16620).
T2 construct: purchased American Life Technologies PV3616
T2 sequence (Q16620 32-822): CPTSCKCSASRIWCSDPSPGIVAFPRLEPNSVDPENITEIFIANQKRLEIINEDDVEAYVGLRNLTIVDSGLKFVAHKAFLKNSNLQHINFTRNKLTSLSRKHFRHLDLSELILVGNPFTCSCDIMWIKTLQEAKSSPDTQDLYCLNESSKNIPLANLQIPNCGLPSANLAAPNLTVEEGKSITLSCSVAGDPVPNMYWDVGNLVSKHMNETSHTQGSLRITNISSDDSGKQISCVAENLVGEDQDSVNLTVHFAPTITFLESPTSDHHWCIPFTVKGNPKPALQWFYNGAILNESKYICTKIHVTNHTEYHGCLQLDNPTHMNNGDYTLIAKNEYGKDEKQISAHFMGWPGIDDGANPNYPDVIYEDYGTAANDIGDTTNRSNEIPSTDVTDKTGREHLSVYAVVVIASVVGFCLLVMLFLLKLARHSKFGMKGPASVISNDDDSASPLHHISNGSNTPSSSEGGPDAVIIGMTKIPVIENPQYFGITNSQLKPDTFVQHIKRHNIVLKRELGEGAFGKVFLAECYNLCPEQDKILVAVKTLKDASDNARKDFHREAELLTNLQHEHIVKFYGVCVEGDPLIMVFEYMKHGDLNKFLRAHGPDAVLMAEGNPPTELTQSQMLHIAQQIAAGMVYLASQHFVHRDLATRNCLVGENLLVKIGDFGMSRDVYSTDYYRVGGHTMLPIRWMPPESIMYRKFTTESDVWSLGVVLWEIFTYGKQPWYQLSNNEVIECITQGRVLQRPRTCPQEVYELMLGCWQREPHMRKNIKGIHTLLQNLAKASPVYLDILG
The experiment can be described thus: Z'-LYTE kinase activity detection, TRKB. The class given is biochemical.

In another experiment the target is T3, TRKC (Homo sapiens, UniProt Q16288).
T3 construct: purchased American Life Technologies PV3617
T3 sequence (Q16288 32-839): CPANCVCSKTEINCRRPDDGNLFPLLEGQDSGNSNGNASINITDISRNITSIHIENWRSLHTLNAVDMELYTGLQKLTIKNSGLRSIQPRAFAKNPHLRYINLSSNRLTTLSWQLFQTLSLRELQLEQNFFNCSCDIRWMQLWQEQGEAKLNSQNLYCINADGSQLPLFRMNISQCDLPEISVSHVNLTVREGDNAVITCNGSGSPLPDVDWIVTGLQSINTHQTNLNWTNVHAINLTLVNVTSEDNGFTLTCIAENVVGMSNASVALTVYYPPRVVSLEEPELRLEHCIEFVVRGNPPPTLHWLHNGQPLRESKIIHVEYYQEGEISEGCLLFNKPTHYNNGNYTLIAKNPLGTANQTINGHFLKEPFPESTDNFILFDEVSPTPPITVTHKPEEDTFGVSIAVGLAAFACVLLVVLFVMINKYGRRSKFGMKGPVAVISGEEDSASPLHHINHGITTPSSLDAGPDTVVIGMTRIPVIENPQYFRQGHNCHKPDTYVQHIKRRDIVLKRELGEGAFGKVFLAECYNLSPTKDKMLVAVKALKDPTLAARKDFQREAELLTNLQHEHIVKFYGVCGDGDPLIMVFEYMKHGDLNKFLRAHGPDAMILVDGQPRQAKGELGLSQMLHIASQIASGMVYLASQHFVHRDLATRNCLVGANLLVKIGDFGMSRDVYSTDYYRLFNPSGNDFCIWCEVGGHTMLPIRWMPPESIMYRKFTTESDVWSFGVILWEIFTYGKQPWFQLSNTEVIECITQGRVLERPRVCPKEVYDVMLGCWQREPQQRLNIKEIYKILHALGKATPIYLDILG
The experiment can be described thus: Z'-LYTE kinase activity detection, TRKC. The class given is biochemical.

Another experiment concerns the target T4, BaF3-CD74-NTRK1 (Homo sapiens, UniProt P04629).
T4 construct: fused on or other part: P04233 (HLA class II histocompatibility antigen gamma chain)
The experiment can be described thus: Cell proliferation inhibition, Ba/F3-TRKs stable strain (CCK-8). The class given is cell-based, mouse. As to conditions: 72 hours, read-out: cell viability IC50 CD74-NTRK1. An excerpt: (§1) The BaF3 cells (mouse pre-B cells) used in this experiment were purchased from the Japanese Cell Bank. All of the monoclonal stable strains, BaF3-CD74-NTRK1, BaF3-ETV6-NTRK2 and BaF3-ETV6-NTRK3 were constructed by our laboratory, and were identified by experiments such as positive control, protein expression and gene sequencing.
(§2) The brief steps of stable strain construction were as follows: constructed pCDNA3.1(+) plasmid vector carrying genes such as CD74-NTRK1, ETV6-NTRK2, ETV6-NTRK3; the plasmid was electroporated into Ba/F3 cells using Amaxa® Cell Line Nucleofector® Kit V; 48 hours after electroporation, geneticin (G418) with a final concentration of 1000 μg/mL was added to screen for two weeks, and the interleukin 3 (IL3) was removed to continue screening to obtain polyclonal stable strains; and then single clones were selected by limiting dilution method; the stable strains were then identified by the positive drugs, Western Blot (WB), and gene sequencing; the correct monoclonal through identification can be used to study the cell proliferation inhibitory activity of the inhibitors.
(§3) Cell proliferation inhibitory activity study: The cells in logarithmic growth phase were seeded into 96-well plates at 8000-12000 cells/well, and the inhibitors at different concentrations of (0-10 μM) were added the next day, and the culture was continued for 72 hours; then 10 μL of Cell Counting Kit-8 Cell Counting Reagent (CCK-8 Reagent) was added to each well, and continued to incubate for 1-3 hours; then its absorbance at 450 nm and 650 nm were measured with a super microplate reader. The median inhibitory concentration (IC50) was calculated using medical graphing software (GraphPad Prism 8.0.0).

For another experiment, the target named is T5, BaF3-ETV6-NTRK2 (Homo sapiens, UniProt Q16620).
T5 construct: fused on or other part: P41212 (Transcription factor ETV6)
T5 sequence (Q16620 538-822 limits assumed): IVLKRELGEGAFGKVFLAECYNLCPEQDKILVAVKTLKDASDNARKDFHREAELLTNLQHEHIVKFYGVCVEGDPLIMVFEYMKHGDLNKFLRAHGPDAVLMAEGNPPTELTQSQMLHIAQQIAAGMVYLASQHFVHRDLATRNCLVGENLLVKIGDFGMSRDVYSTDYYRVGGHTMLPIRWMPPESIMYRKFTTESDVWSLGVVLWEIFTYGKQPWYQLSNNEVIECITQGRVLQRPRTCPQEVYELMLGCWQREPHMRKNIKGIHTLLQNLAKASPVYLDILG
Described as above. As to conditions: 72 hours, read-out: cell viability IC50 ETV6-NTRK2. The class given is cell-based, mouse.
Excerpt: as §1, §2, §3

The target of another experiment is T6, BaF3-ETV6-NTRK3 (Homo sapiens, UniProt Q16288).
T6 construct: fused on or other part: P41212 (Transcription factor ETV6)
T6 sequence (Q16288 whole entry, the tested form may be a part): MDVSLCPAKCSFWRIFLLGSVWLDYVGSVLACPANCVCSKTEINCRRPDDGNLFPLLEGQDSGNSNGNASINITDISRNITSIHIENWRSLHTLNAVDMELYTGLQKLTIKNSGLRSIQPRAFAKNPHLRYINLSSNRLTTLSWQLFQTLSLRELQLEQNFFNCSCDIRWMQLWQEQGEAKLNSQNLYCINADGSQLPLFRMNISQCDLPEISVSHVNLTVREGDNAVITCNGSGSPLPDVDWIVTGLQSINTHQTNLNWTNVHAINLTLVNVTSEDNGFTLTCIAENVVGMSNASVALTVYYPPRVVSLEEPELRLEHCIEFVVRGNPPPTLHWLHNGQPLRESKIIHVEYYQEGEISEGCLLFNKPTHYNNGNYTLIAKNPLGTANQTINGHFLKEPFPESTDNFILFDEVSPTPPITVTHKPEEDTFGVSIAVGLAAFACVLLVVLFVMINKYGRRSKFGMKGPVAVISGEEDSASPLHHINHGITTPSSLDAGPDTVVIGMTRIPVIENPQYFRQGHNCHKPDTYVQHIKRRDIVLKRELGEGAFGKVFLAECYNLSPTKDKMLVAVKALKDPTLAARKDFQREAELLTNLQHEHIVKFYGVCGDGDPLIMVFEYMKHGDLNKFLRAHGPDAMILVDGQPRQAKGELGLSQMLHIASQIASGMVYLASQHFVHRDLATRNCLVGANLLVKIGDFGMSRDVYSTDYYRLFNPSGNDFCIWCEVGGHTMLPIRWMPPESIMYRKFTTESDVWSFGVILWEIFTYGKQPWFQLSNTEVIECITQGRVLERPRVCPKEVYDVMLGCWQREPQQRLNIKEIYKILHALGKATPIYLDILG
The description is as above. In kind it is cell-based, mouse. As to conditions: 72 hours, read-out: cell viability IC50 ETV6-NTRK3.
Excerpt: as §1, §2, §3

Molecules are shown by their SMILES.

T1 sequence (P04629 33-796): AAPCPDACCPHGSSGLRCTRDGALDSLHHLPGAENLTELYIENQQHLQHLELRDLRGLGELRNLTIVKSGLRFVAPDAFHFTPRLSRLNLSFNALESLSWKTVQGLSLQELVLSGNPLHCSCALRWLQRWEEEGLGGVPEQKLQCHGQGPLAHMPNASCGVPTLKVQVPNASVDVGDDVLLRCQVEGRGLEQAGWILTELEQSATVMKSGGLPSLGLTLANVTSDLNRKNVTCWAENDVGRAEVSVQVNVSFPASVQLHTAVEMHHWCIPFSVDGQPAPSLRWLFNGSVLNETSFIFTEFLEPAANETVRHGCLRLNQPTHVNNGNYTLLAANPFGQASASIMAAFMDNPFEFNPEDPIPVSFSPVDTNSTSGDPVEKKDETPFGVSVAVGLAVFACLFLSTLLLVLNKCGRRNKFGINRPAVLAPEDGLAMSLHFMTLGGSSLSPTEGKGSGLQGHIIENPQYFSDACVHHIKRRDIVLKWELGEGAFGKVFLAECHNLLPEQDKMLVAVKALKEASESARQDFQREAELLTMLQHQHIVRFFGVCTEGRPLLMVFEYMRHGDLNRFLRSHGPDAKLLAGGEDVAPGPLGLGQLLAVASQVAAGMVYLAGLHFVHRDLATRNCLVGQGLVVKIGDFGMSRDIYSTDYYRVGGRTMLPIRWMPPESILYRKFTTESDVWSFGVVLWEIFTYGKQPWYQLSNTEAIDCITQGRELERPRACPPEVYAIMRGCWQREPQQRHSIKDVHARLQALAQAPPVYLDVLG
T4 sequence (P04629 510-796 limits assumed): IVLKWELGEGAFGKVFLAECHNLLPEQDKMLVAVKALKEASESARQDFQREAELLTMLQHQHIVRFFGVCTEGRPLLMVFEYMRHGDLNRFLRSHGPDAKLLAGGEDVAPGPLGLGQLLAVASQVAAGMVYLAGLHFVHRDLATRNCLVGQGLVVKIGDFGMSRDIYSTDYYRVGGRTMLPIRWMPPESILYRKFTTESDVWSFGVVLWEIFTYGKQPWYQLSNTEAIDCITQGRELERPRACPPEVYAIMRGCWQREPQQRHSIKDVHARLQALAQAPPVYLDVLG

In the case of `Cc1c(C#Cc2cnc3ccc(N4CC[C@H](O)C4)nn23)cccc1C(=O)Nc1cc(CN2CCN(C)CC2)cc(C(F)(F)F)c1` [XS3-36, (S)-3-((6-(3-HYDROXYPYRROLIDIN-1-YL)IMIDAZO[1,2-B]PYRIDAZIN-3-YL)ETHYNYL)-2-METHYL-N-(3-((4-METHYLPIPERAZIN-1-YL)METHYL)-5-(TRIFLUOROMETHYL)PHENYL)BENZAMIDE], the half-inhibitory concentration (IC50) was 10 to 100 nM on TRKA; 10 to 100 nM at TRKB; less than 10 nM on TRKC; 10 to 100 nM on BaF3-CD74-NTRK1; 10 to 100 nM at BaF3-ETV6-NTRK2; 10 to 100 nM at BaF3-ETV6-NTRK3.
On to `Cc1c(C#Cc2cnc3ccc(N4CCN(C)CC4)nn23)cccc1C(=O)Nc1cc(Cl)cc(C(F)(F)F)c1` [XS3-51, N-(3-CHLORO-5-(TRIFLUOROMETHYL)PHENYL)-2-METHYL-3-((6-(4-METHYLPIPERAZIN-1-YL)IMIDAZO[1,2-B]PYRIDAZIN-3-YL)ETHYNYL)BENZAMIDE], for which the half-maximal inhibitory concentration (IC50) on TRKA is 10 to 100 nM; at TRKB, 10 to 100 nM; on TRKC it was less than 10 nM; on BaF3-CD74-NTRK1 it was 100 to 1000 nM; on BaF3-ETV6-NTRK2, 100 to 1000 nM; on BaF3-ETV6-NTRK3, 10 to 100 nM.
Turning to `Cc1c(C#Cc2cnc3ccc(N4CCN(C)[C@H](C)C4)nn23)cccc1C(=O)Nc1cc(Cl)cc(C(F)(F)F)c1` [XS3-52, (R)—N-(3-CHLORO-5-(TRIFLUOROMETHYL)PHENYL)-3-((6-(3,4-DIMETHYLPIPERAZIN-1-YL)IMIDAZO[1,2-B]PYRIDAZIN-3-YL)ETHYNYL)-2-METHYLBENZAMIDE], the half-inhibitory concentration (IC50) against TRKA was 10 to 100 nM; against TRKB it was 10 to 100 nM; on TRKC, 10 to 100 nM; at BaF3-CD74-NTRK1 it was 10 to 100 nM; at BaF3-ETV6-NTRK2, 100 to 1000 nM; on BaF3-ETV6-NTRK3, 10 to 100 nM.
Turning to `Cc1c(C#Cc2cnc3ccc(NCCN4CCOCC4)nn23)cccc1C(=O)Nc1cc(Cl)cc(C(F)(F)F)c1` [XS3-53, N-(3-CHLORO-5-(TRIFLUOROMETHYL)PHENYL)-2-METHYL-3-((6-((2-MORPHOLINOETHYL)AMINO)IMIDAZO[1,2-B]PYRIDAZIN-3-YL)ETHYNYL)BENZAMIDE], the IC50 on TRKA is less than 10 nM; against TRKB it was 10 to 100 nM; on TRKC, less than 10 nM; on BaF3-CD74-NTRK1 it was 10 to 100 nM; on BaF3-ETV6-NTRK2 it was 100 to 1000 nM; at BaF3-ETV6-NTRK3 it was 10 to 100 nM.
As to `CC(=O)N1CCN(c2ccc3ncc(C#Cc4cccc(C(=O)Nc5cc(Cl)cc(C(F)(F)F)c5)c4C)n3n2)CC1` [XS3-54, 3-((6-(4-ACETYLPIPERAZIN-1-YL)IMIDAZO[1,2-B]PYRIDAZIN-3-YL)ETHYNYL)-N-(3-CHLORO-5-(TRIFLUORO) METHYL)PHENYL)-2-METHYLBENZAMIDE], the concentration for half-maximal inhibition (IC50) against TRKA is less than 10 nM; at TRKB it was 10 to 100 nM; on TRKC, less than 10 nM; at BaF3-CD74-NTRK1, 10 to 100 nM; at BaF3-ETV6-NTRK2, 10 to 100 nM; at BaF3-ETV6-NTRK3, 10 to 100 nM.
In the case of `Cc1c(C#Cc2cnc3ccc(N4CCC(N(C)C)CC4)nn23)cccc1C(=O)Nc1cc(Cl)cc(C(F)(F)F)c1` [XS3-56, N-(3-CHLORO-5-(TRIFLUOROMETHYL)PHENYL)-3-((6-(4-(DIMETHYLAMINO)PIPERIDIN-1-YL)IMIDAZO[1,2-B]PYRIDAZIN-3-YL)ETHYNYL)-2-METHYLBENZAMIDE], the IC50 on TRKA fell in the range of 10 to 100 nM; on TRKB, 10 to 100 nM; against TRKC it was 10 to 100 nM; on BaF3-CD74-NTRK1 it was 100 to 1000 nM; on BaF3-ETV6-NTRK2 it was 100 to 1000 nM; on BaF3-ETV6-NTRK3, 10 to 100 nM.
Take `Cc1c(C#Cc2cnc3ccc(N4CCC(N(C)C)CC4)nn23)cccc1C(=O)Nc1cccc(C(F)(F)F)c1` [XS3-57, 3-((6-(4-(DIMETHYLAMINO)PIPERIDIN-1-YL)IMIDAZO[1,2-B]PYRIDAZIN-3-YL)ETHYNYL)-2-METHYL-N-(3-(TRIFLUOROMETHYL)PHENYL)BENZAMIDE]: the IC50 against TRKA is less than 10 nM; on TRKB, less than 10 nM; at TRKC, less than 10 nM; at BaF3-CD74-NTRK1, 10 to 100 nM; on BaF3-ETV6-NTRK2 it was 100 to 1000 nM; on BaF3-ETV6-NTRK3 it was 10 to 100 nM.
On to `Cc1c(C#Cc2cnc3ccc(N4CC[C@H](O)C4)nn23)cccc1C(=O)Nc1cc(Cl)cc(C(F)(F)F)c1` [XS3-58, (S)—N-(3-CHLORO-5-(TRIFLUOROMETHYL)PHENYL)-3-((6-(3-HYDROXYPYRROLIDIN-1-YL)IMIDAZO[1,2-B]PYRIDAZIN-3-YL)ETHYNYL)-2-METHYLBENZAMIDE], for which the IC50 fell in the range of 10 to 100 nM against TRKA; 10 to 100 nM against TRKB; 10 to 100 nM against TRKC; 100 to 1000 nM on BaF3-CD74-NTRK1; 100 to 1000 nM on BaF3-ETV6-NTRK2; 10 to 100 nM on BaF3-ETV6-NTRK3.
As for `Cc1c(C#Cc2cnc3ccc(N4CCC(N(C)C)CC4)nn23)cccc1C(=O)Nc1cc(CN2CCN(C)CC2)cc(C(F)(F)F)c1` [XS3-67, 3-((6-(4-(DIMETHYLAMINO)PIPERIDIN-1-YL)IMIDAZO[1,2-B]PYRIDAZIN-3-YL)ETHYNYL)-2-METHYL-N-(3-((4-METHYLPIPERAZIN-1-YL)METHYL)-5-(TRIFLUOROMETHYL)PHENYL)BENZAMIDE], the IC50 against TRKA is less than 10 nM; on TRKB, 10 to 100 nM; against TRKC it was less than 10 nM; on BaF3-CD74-NTRK1, 100 to 1000 nM; on BaF3-ETV6-NTRK2, 100 to 1000 nM; on BaF3-ETV6-NTRK3, 10 to 100 nM.
`Cc1cn(-c2cc(NC(=O)c3cccc(C#Cc4cnc5ccc(N6CCOCC6)nn45)c3C)cc(C(F)(F)F)c2)cn1` [XS3-91]: the IC50 is less than 10 nM at TRKA; less than 10 nM at TRKB; less than 10 nM on TRKC; 10 to 100 nM at BaF3-CD74-NTRK1; 10 to 100 nM at BaF3-ETV6-NTRK2; less than 10 nM at BaF3-ETV6-NTRK3.
In the case of `Cc1c(C#Cc2cnc3ccc(N4CCC(N5CCOCC5)CC4)nn23)cccc1C(=O)Nc1cc(Cl)cc(C(F)(F)F)c1` [XS3-130, N-(3-CHLORO-5-(TRIFLUOROMETHYL)PHENYL)-2-METHYL-3-((6-(4-MORPHOLINPIPERIDIN-1-YL)IMIDAZO[1,2-B]PYRIDAZIN-3-YL)ETHYNYL)BENZAMIDE], the IC50 was 10 to 100 nM against TRKA; 10 to 100 nM against TRKB; less than 10 nM against TRKC; 10 to 100 nM at BaF3-CD74-NTRK1; 10 to 100 nM on BaF3-ETV6-NTRK2; 10 to 100 nM on BaF3-ETV6-NTRK3.
In the case of `Cc1c(C#Cc2cnc3ccc(N4CCC(N)CC4)nn23)cccc1C(=O)Nc1cc(Cl)cc(C(F)(F)F)c1` [XS3-131, 3-((6-(4-AMINOPIPERIDIN-1-YL)IMIDAZO[1,2-B]PYRIDAZIN-3-YL)ETHYNYL)-N-(3-CHLORO-5-(TRIFLUOROMETHYL)PHENYL)-2-METHYLBENZAMIDE], the half-inhibitory concentration (IC50) at TRKA fell in the range of 10 to 100 nM; against TRKB, 10 to 100 nM; against TRKC, 10 to 100 nM; on BaF3-CD74-NTRK1, 100 to 1000 nM; on BaF3-ETV6-NTRK2, 100 to 1000 nM; on BaF3-ETV6-NTRK3, 10 to 100 nM.
`Cc1c(C#Cc2cnc3ccc(N(C)CCN(C)C)nn23)cccc1C(=O)Nc1cc(Cl)cc(C(F)(F)F)c1` [XS3-134, N-(3-CHLORO-5-(TRIFLUOROMETHYL)PHENYL)-3-((6-((2-(DIMETHYLAMINO)ETHYL)(METHYL)AMINO)IMIDAZO[1,2-B]PYRIDAZIN-3-YL)ETHYNYL)-2-METHYLBENZAMIDE]: the half-inhibitory concentration (IC50) at TRKA lay in the range of 10 to 100 nM; against TRKB it was 10 to 100 nM; against TRKC, 10 to 100 nM; on BaF3-CD74-NTRK1, 100 to 1000 nM; on BaF3-ETV6-NTRK2, 100 to 1000 nM; at BaF3-ETV6-NTRK3 it was 10 to 100 nM.
